# “Also recorded” adds a separate entry of the source. Where two headings read alike, the source gives them in different places.
# How the values were obtained:
# NF-κB [1] = assay: TNF-α induced NF-κB luciferase reporter assay in C2C12 myoblasts; type: cell-based; conditions: for NF-κB inhibition in myoblasts: 0.0001-10μM, TNF-α 10ng/ml; for Luciferase activity (reduced to): 1μg/ml, myoblasts
# C2C12 myotubes = assay: MTT cell viability assay in C2C12 myotubes; conditions: for Myotubes % Cell Viability: MTT at respective IC50 concentration, relative to untreated controls
# NF-κB [2] = assay: TNF-α induced NF-κB luciferase reporter assay in C2C12 myotubes; type: cell-based; conditions: 0.0001-10μM, TNF-α 10ng/ml
# NF-κB [3] = conditions: read-out: IC50, LPS-induced NF-κB; macrophage cell line; cited from earlier work
# [4] = MTT cell viability assay in C2C12 myotubes; conditions: mouse
# [5] = MTT cell viability assay in C2C12 myoblasts; conditions: mouse
# NF-κB p65 = assay: Immunostaining for NF-κB p65 nuclear translocation in C2C12 myoblasts; type: cell-based; conditions: drug 1μg/ml 24 hours, then TNF-α 24 hours
# [6] = 10mg/kg; cited from earlier work
# NF-κB [7] = conditions: read-out: IC50, NF-κB inhibition; macrophage reporter cell line; cited from earlier work
# [8] = mdx mouse; 5mg/kg; cited from earlier work
# [9] = mdx model; 1.2mg/kg; cited from earlier work
# in vitro = conditions: mouse
# NF-κB [10] = conditions: primary human peripheral blood and mononuclear cells; cited from earlier work
# C2C12 myoblasts = assay: MTT cell viability assay in C2C12 myoblasts; conditions: MTT at respective IC50 concentration; relative to untreated controls
# [11] = Myoblast, read-out: NF-κB inhibition luciferase activity, Mean ± SD
compound,measurement,setting,value
CC(C)(C)c1ccc(S(=O)(=O)/C=C/C#N)cc1 [Bay 11-7085],NF-κB inhibition in myoblasts,NF-κB [1],but not myoblasts
same,Myotubes % Cell Viability,C2C12 myotubes,87.2%
same,NF-κB inhibition in myotubes (words),NF-κB [2]; listed as BAY 11-7085,no inhibition
same,NF-κB inhibition in myotubes (words),NF-κB [2]; listed as Bay-11 7085,exhibited NF-κB inhibition
CC1=C(O)C(=O)C=C2C1=CC=C1[C@@]2(C)CC[C@@]2(C)[C@@H]3C[C@](C)(C(=O)O)CC[C@]3(C)CC[C@]12C [Celastrol],IC50,NF-κB [3],270 nM
same,IC50,"NF-κB [1]; Mus musculus, C2C12, read-out: IC50 in myocytes",~1 nM
same,viability at 48 h,[4],72.1%
same,Toxicity to myotubes,"C2C12 myotubes; 10μg/ml, MTT",35%
same,viability at 48 h,[5],83.9%
same,NF-κB nuclear translocation (qualitative),NF-κB p65,appeared to block nuclear translocation; also recorded: reduced the amount of nuclear translocation
same,Paw swelling,[6],reduce paw swelling a similar amount as Prednisolone
"O=C(O[C@@H]1Cc2c(O)cc(O)cc2O[C@@H]1c1cc(O)c(O)c(O)c1)c1cc(O)c(O)c(O)c1 [EGCG, Epigallocatechin gallate]",IC50,NF-κB [7],12000 nM
same,NF-κB inhibition in myoblasts,NF-κB [1],did not inhibit NF-κB
same,"NF-κB inhibition in myocytes, myoblasts and myotubes together",NF-κB [1],mostly ineffective
same,NF-κB inhibition in myotubes (words),NF-κB [2],did not inhibit NF-κB
same,"Muscle histology, force contractions and creatine kinase leakage",[8],"improve mdx mouse muscle histology, force contractions and creatine kinase leakage"
Cc1ccc(=O)n(-c2ccccc2)c1 [Pirfenidone],NF-κB inhibition in myoblasts,NF-κB [1],did not inhibit NF-κB
same,"NF-κB inhibition in myocytes, myoblasts and myotubes together",NF-κB [1],mostly ineffective
same,Cardiac function,[9],improve cardiac function
same,NF-κB inhibition in myotubes (words),NF-κB [2],did not inhibit NF-κB
C[C@]12C=CC(=O)C=C1CC[C@@H]1[C@@H]2[C@@H](O)C[C@@]2(C)[C@H]1CC[C@]2(O)C(=O)CO [Prednisolone],viability at 48 h,in vitro,81.6%
same,inhibition at 0.1 µM,NF-κB [1]; [11],51.7 ± 13.6%
same,inhibition at 1 µM,NF-κB [1]; [11],79.2 ± 9.22%
same,inhibition at 10 µM,NF-κB [1]; [11],85.4 ± 4.59%
same,Luciferase activity (reduced to),"NF-κB [1]; long regime: 24 h pretreatment, 24 h TNF-α",38%
same,"NF-κB inhibition in myocytes, myoblasts and myotubes together",NF-κB [1],effective at inhibiting the NF-κB pathway
same,Luciferase activity (reduced to),"NF-κB [1]; short regime: 30min pretreatment, 3hr TNF-α",49.5%
same,viability at 48 h,[5]; C2C12 myoblasts containing an NF-κB luciferase reporter,78.8%
same,NF-κB nuclear translocation (qualitative),NF-κB p65,appeared to block nuclear translocation; also recorded: reduced the amount of nuclear translocation
CC1=C(CO)C(=O)O[C@@H]([C@@H](C)[C@H]2CC[C@H]3[C@@H]4C[C@H]5O[C@]56[C@@H](O)C=CC(=O)[C@]6(C)[C@H]4CC[C@]23C)C1 [Withaferin],Maximal effective dose,NF-κB [10],1.0 mg/mL
same,"NF-κB inhibition in myocytes, myoblasts and myotubes together",NF-κB [1],effective at inhibiting NF-κB
same,Myotubes % Cell Viability,C2C12 myotubes,72.7%
same,Myoblasts % Cell Viability,C2C12 myoblasts,61.1%
Thymosin β4: small actin-sequestering protein that reduces inflammation and promotes healing in multiple tissues,NF-κB inhibition in myoblasts,NF-κB [1],did not inhibit NF-κB
same,"NF-κB inhibition in myocytes, myoblasts and myotubes together",NF-κB [1],mostly ineffective
same,NF-κB inhibition in myotubes (words),NF-κB [2],did not inhibit NF-κB

# From paper PMC2745946 (International immunopharmacology, 2009)
